Values of other authors in patent US20240082217A1, “PROCESS FOR OBTAINING A PURIFIED PS[…] SOLUTION” (PSILO SCIENTIFIC LTD, priority 2020, published 2024).

Conditions: stated as a property of the alkaloid, freebase form; no measurement described

CN(C)CCc1c[nH]c2cccc(O)c12 [psilocin]
isoelectric point (pH): 8.47±0.25 pH
